Data from patent US10576084B2, “Salt of fused heterocyclic derivative and crystal thereof” (KISSEI PHARMACEUTICAL CO., LTD., priority 2010, dated 2020).
Structures can show the parent of a compound that is named as a salt.

Legend:
[1] = format: physicochemical; details: for saturation solubility in 1st fluid: pH 1.2; for saturation solubility in 2nd fluid: pH 6.8
Method: Saturation Solubility Test
The compound (A) obtained in Example 2, the compound (B) crystals obtained in Comparative Example 2, and the compound (C) obtained in Comparative Example 3 were suspended in water, or in 1st fluid for dissolution test (hereinafter, referred to as “1st fluid”) or 2nd fluid (hereinafter, referred to as “2nd fluid”) described in the Reagents·Test Solutions for General Tests, the Japanese Pharmacopoeia, 15th Edition. The suspensions were incubated at 37° C. After filtering a part of the suspensions, the concentrations of the resulting filtrates were measured by HPLC, and the saturation solubilities were calculated and compared. The HPLC measurement conditions are as follows.
• Detector: Ultraviolet and visible spectrophotometer /wavelength: 225 nm • Column: GL Science Inertsil ODS-3,5 μm, 4.6×250 mm • Column temperature: a constant temperature of around 35° C. • Flow rate: 1.0 mL/min • Mobile phase A: 10 mM potassium dihydrogen phosphate aqueous solution adjusted to pH 5.5 with potassium hydroxide aqueous solution • Mobile phase B: Acetonitrile • Mobile phase ratio 0 to 30 min: mobile phase A/mobile phase B=70/30
The saturation solubility values of compound (A), compound (B) crystals, and compound (C) in water, 1st fluid, and 2nd fluid are shown in Table 2. […] The saturation solubility of compound (A) in 1st fluid was about 30 times and about 2 times higher than those of compound (B) crystals and compound (C), respectively. In 2nd fluid, the saturation solubility of compound (A) was about 10 times and about 70 times higher than those of compound (B) crystals and compound (C), respectively.

[2] = Stability test (storage under 90° C. open conditions, purity by HPLC); format: physicochemical
Method: Stability Test The compound (A) obtained in Example 2 was stored under 90° C. open conditions to examine stability. In stability measurement, the purity of a sample was measured by HPLC at the initial point and after 8 days, and the results were compared. The HPLC measurement conditions are as follows. Measurement Conditions • Detector: Ultraviolet and visible spectrophotometer/wavelength: 225 nm • Column: GL Science Inertsil ODS-3,5 μm, 4.6×250 mm • Column temperature: Constant temperature around 35° C. • Flow rate: 1.0 mL/min • Mobile phase A: 10 mM potassium dihydrogen phosphate aqueous solution adjusted to pH 5.5 with potassium hydroxide aqueous solution • Mobile phase B: Acetonitrile • (Mobile phase ratios are shown in Table 4) • Area measurement range: 54 minutes from the start of the analysis. Areas of the peaks in the blank were excluded from the calculations.

in vivo = assay: in vivo; set-up: species or system SD rats; details: male, SD, rat; for maximum drug concentration time (Tmax): po, 3 mg/kg
Method: Assay for Oral Absorbability
1) Preparation of Sample for Drug Concentration Measurement by Administration through Tail Vein
SD rats (Charles River, male, 7 weeks of age, 170 to 210 g) were used as experimental animals after fasting the rats overnight. N,N-dimethylacetamide (0.2 mL), saline (0.798 mL) and 2N-NaOH (0.002 mL) were added in these amounts with respect to 1 mg of the compound (B) to prepare a 1.0 mg/mL solution. The solution was then administered in a 1 mL/kg dose (1 mg/kg) through the tail vein under no anesthesia (3 samples). The intravenous administration through tail was performed using a 26G injection needle and a 1 mL syringe. Blood was collected through the subclavian veins after 2, 15, 60, 120, 240 and 360 minutes from the intravenous administration through tail. The blood was centrifuged, and the plasma was used as a sample for blood drug concentration measurement.
2) Preparation of Sample for Drug Concentration Measurement by Oral Administration
SD rats (Charles River, male, 7 weeks of age, 220 to 290 g) were used as experimental animals after fasting the rats overnight. A 0.5% methylcellulose aqueous solution (5 mL) was added with respect to 3 mg of compound (A) or compound (B) (in terms of a free compound) to prepare a 0.6 mg/mL drug solution. Each solution was orally administered to the rats in a 5 mL/kg dose (3 mg/kg) (3 samples each). The oral administration was performed using a rat sonde and a 2.5-mL syringe. […]
A suitable internal standard substance solution (0.1 mL) was added to the blood plasma (0.025 mL) obtained in 1) and 2) using an ordinary method. […] Blood plasma drug concentration was measured using the LC-MS/MS technique under the conditions below. […]
Bioavailability (%) was calculated from the value of the area under the blood drug concentration-time curve determined by using a WinNonlin Professional (Pharsight Corporation) from the blood drug concentration at each time point obtained as above after the intravenous administration of the compound (B) through tail and the oral administration of the compound (A) or the compound (B).

saturation solubility in water [1] | saturation solubility in 1st fluid [1] | saturation solubility in 2nd fluid [1] | Purity (%) after 8 days ([2]; after 8 days under 90° C. open conditions) | Purity (%) at initial point ([2]; initial point, before storage) | bioavailability (in vivo) | maximum drug concentration time (Tmax) (in vivo) | SMILES
4165 µg/mL | 4 µg/mL | 3738 µg/mL | 99.6% | 99.6% | ~59% | 0.583 h | COc1cc(F)c(-n2c(=O)[nH]c3csc(C(=O)O)c3c2=O)cc1OCc1c(OC)ccc(F)c1F (single isomer, unassigned) [compound (A), 3-[2-fluoro-5-(2,3-difluoro-6-methoxybenzyloxy)-4-methoxyphenyl]-2,4-dioxo-1,2,3,4-tetrahydrothieno[3,4-d]pyrimidine-5-carboxylic acid choline salt]
68 µg/mL | 2 µg/mL | 52 µg/mL | – | – | – | – | COc1cc(F)c(-n2c(=O)[nH]c3csc(C(=O)O)c3c2=O)cc1OCc1c(OC)ccc(F)c1F.COc1cc(F)c(-n2c(=O)[nH]c3csc(C(=O)O)c3c2=O)cc1OCc1c(OC)ccc(F)c1F.c1ccc(CNCCNCc2ccccc2)cc1 [compound (C), 3-[2-Fluoro-5-(2,3-difluoro-6-methoxybenzyloxy)-4-methoxyphenyl]-2,4-dioxo-1,2,3,4-tetrahydrothieno[3,4-d]pyrimidine-5-carboxylic acid.1/2N,N′-dibenzylethylenediamine salt, reference compound]
7 µg/mL | 0.14 µg/mL | 367 µg/mL | – | – | – | 3.33 h | COc1cc(F)c(-n2c(=O)[nH]c3csc(C(=O)O)c3c2=O)cc1OCc1c(OC)ccc(F)c1F (single isomer, unassigned) [compound (B), 3-[2-fluoro-5-(2,3-difluoro-6-methoxybenzyloxy)-4-methoxyphenyl]-2,4-dioxo-1,2,3,4-tetrahydrothieno[3,4-d]pyrimidine-5-carboxylic acid, reference compound]
